# Where “and” joins values, the source holds several entries; their conditions need not be identical. Equal entries are not always repeated.
# Key:
# Assay in all cases: radiometric filter-binding kinase assay, Kinase HotSpot
# Conditions in all cases: compound 0.5 µM; ATP 10 µM
# [1] = target: CLK1 (human) (UniProt P49759)
# [2] = target: TEC (human) (UniProt P42680)
# [3] = target: MAP3K10 (human) (UniProt Q02779)
# [4] = target: JAK1 JH1 catalytic (human) (UniProt P23458)
# [5] = target: PHKG1 (human) (UniProt Q16816)
# [6] = target: DYRK2 (human) (UniProt Q92630)
# [7] = target: CHUK (human) (UniProt O15111)
# CHUK (human), sequence (O15111 whole entry, looked up): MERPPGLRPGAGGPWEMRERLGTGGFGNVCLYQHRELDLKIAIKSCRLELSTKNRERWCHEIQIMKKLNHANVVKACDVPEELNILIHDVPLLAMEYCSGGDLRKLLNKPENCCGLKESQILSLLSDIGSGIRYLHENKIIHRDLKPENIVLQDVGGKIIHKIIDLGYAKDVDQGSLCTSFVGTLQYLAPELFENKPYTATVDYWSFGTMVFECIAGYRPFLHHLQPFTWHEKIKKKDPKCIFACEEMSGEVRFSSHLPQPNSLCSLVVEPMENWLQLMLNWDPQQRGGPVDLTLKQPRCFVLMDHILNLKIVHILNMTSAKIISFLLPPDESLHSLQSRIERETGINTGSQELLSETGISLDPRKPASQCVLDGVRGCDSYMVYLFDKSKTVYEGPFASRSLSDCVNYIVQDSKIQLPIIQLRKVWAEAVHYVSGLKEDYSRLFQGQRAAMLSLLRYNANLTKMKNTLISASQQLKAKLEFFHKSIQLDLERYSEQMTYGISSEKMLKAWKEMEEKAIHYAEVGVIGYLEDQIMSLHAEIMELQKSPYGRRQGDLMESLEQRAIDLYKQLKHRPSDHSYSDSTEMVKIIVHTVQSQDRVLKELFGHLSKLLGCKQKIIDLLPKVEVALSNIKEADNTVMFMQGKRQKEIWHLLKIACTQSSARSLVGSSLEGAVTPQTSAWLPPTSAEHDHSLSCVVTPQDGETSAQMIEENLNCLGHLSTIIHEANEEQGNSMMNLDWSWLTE
# [8] = target: VRK1 (human) (UniProt Q99986)
# VRK1 (human), sequence (Q99986 whole entry, looked up): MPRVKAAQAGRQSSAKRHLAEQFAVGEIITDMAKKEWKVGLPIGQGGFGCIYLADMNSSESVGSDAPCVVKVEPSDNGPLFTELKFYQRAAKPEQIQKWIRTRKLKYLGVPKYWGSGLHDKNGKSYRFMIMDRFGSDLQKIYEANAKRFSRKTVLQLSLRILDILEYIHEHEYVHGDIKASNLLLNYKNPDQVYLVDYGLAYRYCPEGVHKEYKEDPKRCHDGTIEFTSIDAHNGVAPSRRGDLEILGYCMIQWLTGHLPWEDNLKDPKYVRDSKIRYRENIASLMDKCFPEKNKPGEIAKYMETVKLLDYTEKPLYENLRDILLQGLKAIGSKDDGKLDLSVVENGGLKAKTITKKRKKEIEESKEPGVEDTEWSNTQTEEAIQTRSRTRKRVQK
# [9] = target: HCK (human) (UniProt P08631)
# [10] = target: MAPK8 (human) (UniProt P45983)
# [11] = target: JAK2 JH1 JH2 (human) (UniProt O60674)
# [12] = target: RET (human) (UniProt P07949)
# [13] = target: MARK3 (human) (UniProt P27448)
# [14] = target: NEK6 (human) (UniProt Q9HC98)
# [15] = target: NEK2 (human) (UniProt P51955)
# [16] = target: ACVR1 (human) (UniProt Q04771)
# [17] = target: ERBB2 (human) (UniProt P04626)
# [18] = target: INSRR (human) (UniProt P14616)
# [19] = target: TAOK1 (human) (UniProt Q7L7X3)
# [20] = target: PLK3 (human) (UniProt Q9H4B4)
# [21] = target: CLK2 (human) (UniProt P49760)
# [22] = target: TGFBR1 (human) (UniProt P36897)
# [23] = target: RPS6KA5 KD2 (human) (UniProt O75582)
# RPS6KA5 KD2 (human), sequence (O75582 whole entry, looked up): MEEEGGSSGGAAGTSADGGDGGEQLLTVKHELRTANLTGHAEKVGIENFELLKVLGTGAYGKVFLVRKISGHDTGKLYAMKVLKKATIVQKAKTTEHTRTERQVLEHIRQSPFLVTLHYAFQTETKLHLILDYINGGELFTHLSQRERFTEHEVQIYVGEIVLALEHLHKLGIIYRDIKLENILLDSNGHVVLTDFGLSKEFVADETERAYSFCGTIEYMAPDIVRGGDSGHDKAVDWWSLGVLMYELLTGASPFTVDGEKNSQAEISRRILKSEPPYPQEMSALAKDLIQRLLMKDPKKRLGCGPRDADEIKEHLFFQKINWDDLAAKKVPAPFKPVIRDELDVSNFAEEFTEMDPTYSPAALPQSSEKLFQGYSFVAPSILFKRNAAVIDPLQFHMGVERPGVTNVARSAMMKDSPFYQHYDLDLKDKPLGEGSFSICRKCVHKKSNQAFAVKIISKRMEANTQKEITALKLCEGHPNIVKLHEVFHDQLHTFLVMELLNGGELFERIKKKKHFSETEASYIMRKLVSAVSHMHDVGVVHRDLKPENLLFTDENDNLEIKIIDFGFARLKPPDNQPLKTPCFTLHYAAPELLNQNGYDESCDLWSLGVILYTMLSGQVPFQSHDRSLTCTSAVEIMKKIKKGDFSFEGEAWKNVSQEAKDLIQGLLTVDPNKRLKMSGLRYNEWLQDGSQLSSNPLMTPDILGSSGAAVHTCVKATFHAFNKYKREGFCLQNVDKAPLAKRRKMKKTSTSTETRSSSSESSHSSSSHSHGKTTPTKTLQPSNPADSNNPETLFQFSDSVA
# [24] = target: CSNK1G1 (human) (UniProt Q9HCP0)
# [25] = target: PAK4 (human) (UniProt O96013)
# [26] = target: EPHB4 (human) (UniProt P54760)
# [27] = target: PAK3 (human) (UniProt O75914)
# [28] = target: EPHB1 (human) (UniProt P54762)
# [29] = target: MAP3K5 (human) (UniProt Q99683)
# [30] = target: NTRK3 (human) (UniProt Q16288)
# [31] = target: PRKG1 (human) (UniProt Q13976)
# [32] = target: MAP4K5 (human) (UniProt Q9Y4K4)
# [33] = target: CDK3 CCNE1 (human) (UniProt Q00526+P24864)
# [34] = target: ULK1 (human) (UniProt O75385)
# ULK1 (human), sequence (O75385 whole entry, looked up): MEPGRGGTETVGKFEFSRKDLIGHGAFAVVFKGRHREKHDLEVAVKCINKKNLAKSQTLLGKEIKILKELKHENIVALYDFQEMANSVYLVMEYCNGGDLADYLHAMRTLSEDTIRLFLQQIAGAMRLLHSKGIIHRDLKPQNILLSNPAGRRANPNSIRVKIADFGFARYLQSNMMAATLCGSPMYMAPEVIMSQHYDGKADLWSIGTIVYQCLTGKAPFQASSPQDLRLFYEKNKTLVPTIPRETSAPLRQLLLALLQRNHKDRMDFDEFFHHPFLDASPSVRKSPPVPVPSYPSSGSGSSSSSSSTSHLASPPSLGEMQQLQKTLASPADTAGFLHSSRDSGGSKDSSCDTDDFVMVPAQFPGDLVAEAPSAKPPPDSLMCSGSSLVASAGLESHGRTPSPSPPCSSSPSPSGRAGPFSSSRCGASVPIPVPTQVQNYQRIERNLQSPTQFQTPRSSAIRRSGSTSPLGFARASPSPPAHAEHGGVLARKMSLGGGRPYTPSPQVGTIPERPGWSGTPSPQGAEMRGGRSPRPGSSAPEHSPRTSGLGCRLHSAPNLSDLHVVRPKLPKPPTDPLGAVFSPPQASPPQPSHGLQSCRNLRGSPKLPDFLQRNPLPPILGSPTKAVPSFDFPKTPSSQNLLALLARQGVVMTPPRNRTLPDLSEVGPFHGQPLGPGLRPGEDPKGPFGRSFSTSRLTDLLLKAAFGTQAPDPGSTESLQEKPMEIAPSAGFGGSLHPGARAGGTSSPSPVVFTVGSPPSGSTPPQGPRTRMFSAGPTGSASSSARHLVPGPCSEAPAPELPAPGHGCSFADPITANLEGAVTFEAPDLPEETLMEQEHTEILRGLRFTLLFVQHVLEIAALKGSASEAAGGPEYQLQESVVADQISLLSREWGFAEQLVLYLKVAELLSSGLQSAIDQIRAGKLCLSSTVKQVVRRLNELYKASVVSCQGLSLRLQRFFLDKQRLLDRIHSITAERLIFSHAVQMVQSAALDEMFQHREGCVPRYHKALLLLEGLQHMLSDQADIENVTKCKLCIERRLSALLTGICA
# [35] = target: LIMK1 (human) (UniProt P53667)
# [36] = target: RPS6KA6 KD1 KD2 (human) (UniProt Q9UK32)
# [37] = target: ULK2 (human) (UniProt Q8IYT8)
# [38] = target: AKT3 (human) (UniProt Q9Y243)
# [39] = target: PTK2B (human) (UniProt Q14289)
# [40] = target: CLK3 (human) (UniProt P49761)
# [41] = target: MLTK (human) (UniProt Q9NYL2)
# [42] = target: LYN (human) (UniProt P07948)
# JAK1 JH1 catalytic (human), sequence (P23458 whole entry, looked up): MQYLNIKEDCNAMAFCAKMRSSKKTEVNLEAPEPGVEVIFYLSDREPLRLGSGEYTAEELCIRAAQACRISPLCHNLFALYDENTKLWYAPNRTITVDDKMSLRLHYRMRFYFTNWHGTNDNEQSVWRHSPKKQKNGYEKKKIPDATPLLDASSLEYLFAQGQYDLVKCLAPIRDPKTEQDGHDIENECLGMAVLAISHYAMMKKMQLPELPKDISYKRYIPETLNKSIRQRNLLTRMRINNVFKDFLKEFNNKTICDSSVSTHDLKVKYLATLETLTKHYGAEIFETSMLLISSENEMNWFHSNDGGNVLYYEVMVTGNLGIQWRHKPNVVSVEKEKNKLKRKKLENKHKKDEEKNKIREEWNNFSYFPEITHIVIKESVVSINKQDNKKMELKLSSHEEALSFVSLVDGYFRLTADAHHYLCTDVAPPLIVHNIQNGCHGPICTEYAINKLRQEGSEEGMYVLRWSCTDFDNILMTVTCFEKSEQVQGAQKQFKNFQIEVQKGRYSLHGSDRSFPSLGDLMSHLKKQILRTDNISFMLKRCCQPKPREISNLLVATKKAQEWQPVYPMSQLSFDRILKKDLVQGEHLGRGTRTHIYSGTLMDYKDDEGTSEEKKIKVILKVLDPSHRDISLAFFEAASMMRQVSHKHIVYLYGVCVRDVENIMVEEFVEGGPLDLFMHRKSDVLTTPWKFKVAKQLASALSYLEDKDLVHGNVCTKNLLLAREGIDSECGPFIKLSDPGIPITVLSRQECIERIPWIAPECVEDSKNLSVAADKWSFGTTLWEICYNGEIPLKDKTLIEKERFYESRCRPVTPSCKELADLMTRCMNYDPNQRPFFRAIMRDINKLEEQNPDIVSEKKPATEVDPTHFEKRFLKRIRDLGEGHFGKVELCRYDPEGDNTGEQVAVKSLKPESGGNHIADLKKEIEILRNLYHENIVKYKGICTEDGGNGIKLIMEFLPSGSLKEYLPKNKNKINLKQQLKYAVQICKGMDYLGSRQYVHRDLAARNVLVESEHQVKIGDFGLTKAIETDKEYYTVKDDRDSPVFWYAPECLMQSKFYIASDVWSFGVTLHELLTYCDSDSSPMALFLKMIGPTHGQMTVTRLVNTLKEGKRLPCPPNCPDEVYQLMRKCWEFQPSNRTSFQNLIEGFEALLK
# MAP3K10 (human), sequence (Q02779 whole entry, looked up): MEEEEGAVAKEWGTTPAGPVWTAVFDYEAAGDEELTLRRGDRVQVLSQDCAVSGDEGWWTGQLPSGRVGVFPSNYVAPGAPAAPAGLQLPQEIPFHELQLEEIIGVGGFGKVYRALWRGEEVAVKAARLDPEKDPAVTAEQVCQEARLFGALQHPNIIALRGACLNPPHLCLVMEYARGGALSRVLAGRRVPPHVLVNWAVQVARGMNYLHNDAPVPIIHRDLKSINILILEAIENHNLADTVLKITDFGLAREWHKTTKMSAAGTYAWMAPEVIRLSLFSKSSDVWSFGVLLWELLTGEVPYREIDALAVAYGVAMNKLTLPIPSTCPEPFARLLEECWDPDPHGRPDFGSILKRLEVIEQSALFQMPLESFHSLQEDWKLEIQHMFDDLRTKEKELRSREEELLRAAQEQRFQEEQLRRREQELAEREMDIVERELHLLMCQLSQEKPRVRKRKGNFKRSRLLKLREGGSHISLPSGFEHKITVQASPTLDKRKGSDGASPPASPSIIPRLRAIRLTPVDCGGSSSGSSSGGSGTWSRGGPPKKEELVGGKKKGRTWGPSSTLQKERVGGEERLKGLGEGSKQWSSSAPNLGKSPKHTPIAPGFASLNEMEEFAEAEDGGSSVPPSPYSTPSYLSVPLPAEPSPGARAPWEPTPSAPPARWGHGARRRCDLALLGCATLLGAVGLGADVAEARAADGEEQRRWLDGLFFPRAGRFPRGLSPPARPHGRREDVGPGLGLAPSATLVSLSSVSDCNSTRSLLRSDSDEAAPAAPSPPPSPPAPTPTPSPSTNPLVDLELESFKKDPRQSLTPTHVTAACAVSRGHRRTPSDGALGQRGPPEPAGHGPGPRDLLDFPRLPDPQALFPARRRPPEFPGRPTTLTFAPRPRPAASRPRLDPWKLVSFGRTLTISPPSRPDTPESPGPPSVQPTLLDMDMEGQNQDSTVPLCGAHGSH
structure (smiles),measurement,setting,value
O=C1Cc2c([nH]c3ccc([N+](=O)[O-])cc23)-c2ccccc2N1,residual activity,[1],111%
same,residual activity,[2],137%
same,residual activity,[3],48.6%
same,residual activity,[4],97.8%
same,residual activity,[5],9.22%
same,residual activity,[6],72%
same,residual activity,[7],103%
same,residual activity,[8],90.8%
same,residual activity,[9],71.8%
same,residual activity,[10],99.6%
same,residual activity,[11],103%
same,residual activity,[12],81.6%
same,residual activity,[13],67.7%
same,residual activity,[14],97.1%
same,residual activity,[15],92.4%
same,residual activity,[16],79.7%
same,residual activity,[17],94.8%
same,residual activity,[18],94.5%
same,residual activity,[19],66.9%
same,residual activity,[20],98.8%
same,residual activity,[21],97.7%
same,residual activity,[22],103%
same,residual activity,[23],107%
same,residual activity,[24],100%
same,residual activity,[25],93.9%
same,residual activity,[26],87.2%
same,residual activity,[27],80.4%
same,residual activity,[28],112%
same,residual activity,[29],101%
same,residual activity,[30],63.4%
same,residual activity,[31],94.3% and 96.8%
same,residual activity,[32],15.9%
same,residual activity,[33],56.8%
same,residual activity,[34],85.1%
same,residual activity,[35],94.3%
same,residual activity,[36],38%
same,residual activity,[37],72.7%
same,residual activity,[38],94.1%
same,residual activity,[39],82.9%
same,residual activity,[40],106%
Nc1nc(Nc2ccc(S(N)(=O)=O)cc2)nn1C(=S)Nc1c(F)cccc1F,residual activity,[1],2.26%
same,residual activity,[2],106%
same,residual activity,[41],49.1%
same,residual activity,[3],3%
same,residual activity,[4],4.86%
same,residual activity,[5],26%
same,residual activity,[6],60.4%
same,residual activity,[7],54.4%
same,residual activity,[8],94.6%
same,residual activity,[9],37.9%
same,residual activity,[10],78.8%
same,residual activity,[11],3.16%
same,residual activity,[12],3.09%
same,residual activity,[13],0.29%
same,residual activity,[14],78.8%
same,residual activity,[15],98.3%
same,residual activity,[16],60.4%
same,residual activity,[17],104%
same,residual activity,[18],86.5%
same,residual activity,[19],11.3%
same,residual activity,[20],92.2%
same,residual activity,[21],3.81%
same,residual activity,[22],81.8%
same,residual activity,[23],68.1%
same,residual activity,[24],16.7%
same,residual activity,[25],47.6%
same,residual activity,[26],51%
same,residual activity,[27],35.4%
same,residual activity,[28],19.4%
same,residual activity,[29],1.12%
same,residual activity,[30],3.59%
same,residual activity,[31],85.1% and 91.3%
same,residual activity,[32],1.71%
same,residual activity,[33],-0.912%
same,residual activity,[34],5.03%
same,residual activity,[35],-0.611%
same,residual activity,[36],2.42%
same,residual activity,[37],4.73%
same,residual activity,[38],96.4%
same,residual activity,[39],33.6%
same,residual activity,[40],4.64%
CCN1/C(=C/C(C)=O)Sc2ccc(OC)cc21,residual activity,[2],116%
same,residual activity,[41],91%
same,residual activity,[3],95%
same,residual activity,[4],98.9%
same,residual activity,[5],89.5%
same,residual activity,[42],101% and 94.4%
same,residual activity,[6],19.5%
same,residual activity,[7],89.9%
same,residual activity,[8],98.2%
same,residual activity,[9],97.5%
same,residual activity,[10],102%
same,residual activity,[11],97.1%
same,residual activity,[12],96.5%
same,residual activity,[13],100%
same,residual activity,[14],109%
same,residual activity,[15],97.6%
same,residual activity,[16],88.1%
same,residual activity,[17],99.9%
same,residual activity,[18],91.6%
same,residual activity,[19],92.4%
same,residual activity,[20],99.4%
same,residual activity,[21],25.9%
same,residual activity,[22],94.2%
same,residual activity,[23],87.4%
same,residual activity,[24],87.8%
same,residual activity,[25],108%
same,residual activity,[26],92.4%
same,residual activity,[27],96.3%
same,residual activity,[28],90.6%
same,residual activity,[29],118%
same,residual activity,[30],91.9%
same,residual activity,[31],82.4% and 87%
same,residual activity,[32],92.3%
same,residual activity,[33],91.5%
same,residual activity,[34],115%
same,residual activity,[35],108%
same,residual activity,[36],89%
same,residual activity,[38],96.1%
same,residual activity,[39],97.8%
same,residual activity,[40],95%
